In experiment [1] the test system is B. subtilis. It counts as cell-based, Bacillus subtilis (ATCC, 11774). Particulars: micro-broth dilution, 3 h peptide treatment then MHB 18 h, 37 °C, OD 600 nm. The source says:
(§1) The microbial strains used in this study were Bacillus subtilis (ATCC, 11774), Candida albicans (TIMM, 1768), Enterococcus faecalis (ATCC, 33186), Escherichia coli (ATCC, 11775), Klebsiella pneumoniae (ATCC, 13883), Methicillin-resistant Staphylococcus aureus (ATCC, BAA-41), Pseudomonas aeruginosa (ATCC, 10145), Salmonella enterica (ATCC, 14028), Serratia marcescens (ATCC, 13880), Staphylococcus aureus (ATCC, 25923) and Vibrio parahaemolyticus (ATCC, 17802). All microbial strains were cultivated overnight at 37 °C and 200 rpm, then subcultured and incubated for 3 h under the same incubation conditions to obtain the mid-logarithmic growth phase. The cultivated cells were washed twice with 10 mM Tris–HCl containing 5 mM D-glucose at pH 7.4 and suspended in the same buffer to be used in different assays, as previously described.
(§2) As a conclusive quantitative assessment, broth microtiter assay was used to determine the MIC values of each cryptide against B. subtilis, MRSA, S. enterica, P. aeruginosa, V. parahaemolyticus and C. albicans by following the guidelines of the Clinical and Laboratory Standards Institute (CLSI)[67], with slight modifications. Eighty microliters of 5 × 10^4 CFU/ml of each pathogen were dispensed into a 96-well polypropylene microtiter plate. The wells were then treated with 20 µl of serially diluted cryptides for 3 h at 37 °C. Gentamicin was used for positive controls at 0.2 mg/ml while an equivalent volume of acidified water was used for negative controls. The plates were then topped up with a final concentration of 1 × Mueller Hinton Broth (MHB) and incubated for 18 h under the same incubation conditions. MIC was detected as the lowest concentration of each cryptide that prevents the optically detectable microbial growth at OD = 600 nm.
(Broth dilution looks for growth in wells or tubes with falling amounts of substance.)

Experiment [2] concerns P. aeruginosa. It counts as cell-based, Pseudomonas aeruginosa (ATCC, 10145). Particulars: micro-broth dilution, 3 h peptide treatment then MHB 18 h, 37 °C, OD 600 nm.
Excerpt: as §1, §2

Experiment [3] has as its system C. albicans. It counts as cell-based, Candida albicans (TIMM, 1768). Particulars: micro-broth dilution, 3 h peptide treatment then MHB 18 h, 37 °C, OD 600 nm.
Excerpt: as §1, §2

In experiment [4] the test system is S. enterica mature biofilm. Description: Antibiofilm microtiter plate assay (mature biofilm, crystal violet). It counts as cell-based, Salmonella enterica (ATCC, 14028). As to conditions: for Minimal biofilm eradication concentration (MBEC) S. enterica: tested 12.5-200 µM. As to the method: The antibiofilm activities of the selected cryptides against S. enterica and MRSA mature biofilms were examined by microtiter plate assay as previously described, with slight modification. During the mid-logarithmic phase, S. enterica and MRSA were suspended at the density of 1.7 × 10^8 CFU/ml in MHB. Then 100 µl of each bacterial suspension was dispensed into a vinyl 96 U-shaped-well plate and incubated overnight at 37 °C. The mature biofilms were washed with 10 mM Tris–HCl containing 5 mM D-glucose at pH 7.4 and treated for 8 h with 100 µl of two-fold serially diluted cryptides, under the same incubation conditions. A sterile MHB medium was used as the positive control while an equivalent volume of acidified water was used to treat the negative controls. The treated biofilms were washed twice with the same washing buffer and stained with 0.1% crystal violet for 15 min followed by rinsing with sterile distilled water twice and then dried for 30 min at 37 °C. The stain was dissolved with 33% acetic acid and transferred to an optically clear 96-well flat bottom plate which was then measured at 600 nm.
Table S.4 Antibiofilm activities of the selected Cryptides against S. enterica and MRSA. Microbial cells were suspended at 1.7 X 10^8 CFU/ml density, during the mid-logarithmic phase in MHB. Then, 96 U-shaped -well plates were inoculated with 100 µl of microbial suspension and incubated for 48 h at 37 °C. The formed biofilms were washed with 10 mM Tris-HCl and treated with 100 µl of different concentrations of each peptide for 24 h. The treated biomasses were washed and fixed with methanol for 15 min at -20 °C before staining with 0.1 % crystal violet. The stained biofilms were dissolved in 100 µl of 33 % acetic acid and the quantities of crystal violet stains were determined by measuring absorbance at 600 nm as an indicator of the remaining biomass after treatment. Untreated cells were used as negative control [indicating 100 % biofilm integrity] while the sterile medium was used as a positive control [indicating 0 % biofilm integrity].
S. enterica MRSA S. enterica MRSA S. enterica MRSA S. enterica MRSA S. enterica MRSA

In experiment [5] the test system is Caco-2. It counts as cell-based, human. Particulars: 24 h, serum-free medium, MTT, 37 °C, 5% CO2; mean ± SD. As to the method: (§3) The used mammalian cell lines in our study were colorectal adenocarcinoma (Caco2, ATCC-HTB-37), colorectal carcinoma (HCT 116, ATCC-CCL-247), lung carcinoma (A549, ATCC- CCL-185), cervical cancer cells (HeLa, ATCC-CCL-2), neuroblastoma (SH-SY5Y, ATCC- CRL-2266), rhabdomyosarcoma (RD, ATCC- CCL-136) and human embryonic kidney cells (HEK 293, ATCC- CRL-1573). All the cells were maintained into Dulbecco’s Modified Eagle’s Medium (DMEM) supplemented with 10% heat-inactivated fetal bovine serum, 2 mM L-Glutamine, 100 U/ml penicillin–streptomycin (Pen/Strep) at 37 °C in 5% CO2 humidified incubator.
(§4) First, the cytotoxic effect of 24 h serum deprivation on all the selected cell lines was evaluated by MTT assay, following standard protocols. Briefly, cells were seeded and maintained at 37 °C and 5% CO2 in 24-well plates until they reached 75–80% confluency (zero time). Following washing twice with 1X PBS, cells were incubated in a serum-free medium for 24 h, under the same incubation conditions. The cell viability percentages were calculated and compared to zero time as 100% viability to nullify any possible effects of serum deprivation. Thence, the cell viability percentage of each cell line in response to 24 h treatment with different concentrations of each cryptide in serum-free medium was calculated. […] All the measured cell viability percentages were normalised against the corresponding negative controls.

The test system of experiment [6] is HeLa. It counts as cell-based, human. Particulars: 24 h, serum-free medium, MTT, 37 °C, 5% CO2; mean ± SD. The method, then:
as §3, §4

Experiment [7] is classed as cell-based. As to conditions: 24 h, serum-free medium, MTT, 37 °C, 5% CO2; mean ± SD; read-out: IC50 (µM) A459. The method, then:
as §3, §4

Experiment [8] relates to RD. It counts as cell-based. Particulars: 24 h, serum-free medium, MTT, 37 °C, 5% CO2; mean ± SD. The method, then:
as §3, §4

Experiment [9] has as its system B. subtilis. It counts as cell-based, Bacillus subtilis (ATCC, 11774). As to conditions: 20 µl of wells without growth on agar, 18 h, 37 °C.
The test system of experiment [10] is MRSA. It counts as cell-based, Methicillin-resistant Staphylococcus aureus (ATCC, BAA-41). Particulars: 20 µl of wells without growth on agar, 18 h, 37 °C.
Experiment [11] deals with P. aeruginosa. It counts as cell-based, Pseudomonas aeruginosa (ATCC, 10145). Particulars: 20 µl of wells without growth on agar, 18 h, 37 °C.
Where [12] appears, read: crystal violet, absorbance 600 nm, mean ± SD.

Values after ≈ are worked out from the molar mass of the structure shown. Values joined by “and” are separate entries in the source; they are usually repeats but may differ in a detail not shown here. Equal entries are not always repeated. Where a SMILES comes first, the peptide text is derived from it. Bounds are passed on as bounds.

One may read the IC50 as the concentration needed to halve the response being measured. In the case of `CC(C)C[C@H](NC(=O)[C@H](CCCNC(=N)N)NC(=O)[C@H](Cc1c[nH]c2ccccc12)NC(=O)[C@H](CCCNC(=N)N)NC(=O)[C@H](CC(C)C)NC(=O)[C@@H](N)Cc1ccccc1)C(=O)N[C@@H](CCCCN)C(=O)N[C@@H](Cc1ccccc1)C(=O)N[C@@H](CCCCN)C(=O)N[C@@H](CO)C(=O)N[C@@H](CCCCN)C(=O)N[C@H](C(=O)N[C@@H](Cc1c[nH]c2ccccc12)C(=O)N[C@@H](CS)C(=O)N1CCC[C@H]1C(=O)O)C(C)C` [AD7] (H-FLRWRLKFKSKVWCP-OH), the “MIC (µM) B. subtilis” value in experiment [1] is recorded as 0.39 µM (≈ 0.778 µg/mL). The “MIC (µM) P. aeruginosa” value in experiment [2] turned out to be 6.25 µM (≈ 12.5 µg/mL). Also, the “MIC (µM) C. albicans” value in [3] worked out at 1.56 µM (≈ 3.11 µg/mL). The “Minimal biofilm eradication concentration (MBEC) S. enterica” value in experiment [4] is listed as 100 µM. In addition, the half-maximal inhibitory concentration (IC50) stood at 11.2 ± 0.7 µM in experiment [5], 101.5 ± 0.9 µM in experiment [6], 8.5 ± 0.6 µM in [7] and 97.8 ± 0.2 µM in experiment [8]. Also, the “MBC (µM) B. subtilis” value in experiment [9] is 0.39 µM (≈ 0.778 µg/mL). The “MBC (µM) MRSA” value in experiment [10] is 3.12 µM (≈ 6.22 µg/mL). In experiment [11], the “MBC (µM) P. aeruginosa” value is listed as 25 µM (≈ 49.9 µg/mL).
In the case of “RHCLRSKRPPNVCPH [AD4, cationic cryptide from P. vannamei precursor DN34505 (Pl-crustin 2), chemically synthesised]”, the “MIC (µM) B. subtilis” value in [1] is reported as 1.56 µM. In addition, the “MIC (µM) P. aeruginosa” value in experiment [2] is over 50 µM. Further, the “MIC (µM) C. albicans” value in experiment [3] is listed as 25 µM. In addition, in experiment [4] (setting [12]), the “Biofilm eradication S. enterica, 12.5 µM” value was 6.16 ± 2.7%; the “Biofilm eradication S. enterica, 25 µM” value came to 12.58 ± 1.9%; the “Biofilm eradication S. enterica, 50 µM” value is listed as 30.41 ± 1.9%; the “Biofilm eradication S. enterica, 100 µM” value came out at 45.13 ± 2%. Besides, the “Biofilm eradication S. enterica, 200 µM” value in experiment [4] (setting [12]) was 80.63 ± 1% and 80.63%. In addition, the IC50 in experiment [5] worked out at 5.4 ± 0.7 µM. The IC50 in [6] is 10.8 ± 0.3 µM. Besides, the IC50 in [7] stood at 8.8 ± 1.1 µM. In addition, in experiment [8], it took 15 ± 0.8 µM to reach half-maximal inhibition (IC50). The “MBC (µM) B. subtilis” value in [9] is given as 1.56 µM. For the same compound, the “MBC (µM) MRSA” value in experiment [10] worked out at 12.5 µM. In experiment [11], the “MBC (µM) P. aeruginosa” value was over 50 µM.
For `CSCC[C@H](NC(=O)[C@H](CCCCN)NC(=O)CNC(=O)[C@H](CCCCN)NC(=O)[C@H](Cc1ccc(O)cc1)NC(=O)[C@H](CC(N)=O)NC(=O)[C@H](CC(C)C)NC(=O)[C@H](CCC(N)=O)NC(=O)[C@H](CC(C)C)NC(=O)[C@@H](N)CCCNC(=N)N)C(=O)N[C@@H](Cc1c[nH]c2ccccc12)C(=O)N[C@@H](CS)C(=O)N1CCC[C@H]1C(=O)NCC(=O)N[C@@H](Cc1c[nH]c2ccccc12)C(=O)O` [AD11] (H-RLQLNYKGKMWCPGW-OH), the “MIC (µM) B. subtilis” value in [1] amounted to 0.78 µM (≈ 1.47 µg/mL). The “MIC (µM) P. aeruginosa” value in experiment [2] turned out to be 25 µM (≈ 47 µg/mL). In addition, the “MIC (µM) C. albicans” value in experiment [3] stood at 25 µM (≈ 47 µg/mL). In [4], the “Minimal biofilm eradication concentration (MBEC) S. enterica” value amounted to 200 µM. The IC50 in experiment [5] was found to be 26.8 ± 0.4 µM; in experiment [6], 16.8 ± 0.6 µM; in experiment [7], 11.1 ± 0.7 µM; in [8], 19.2 ± 0.9 µM. Further, the “MBC (µM) B. subtilis” value in experiment [9] is 0.78 µM (≈ 1.47 µg/mL). Besides, the “MBC (µM) MRSA” value in [10] turned out to be 12.5 µM (≈ 23.5 µg/mL). Also, the “MBC (µM) P. aeruginosa” value in experiment [11] is recorded as over 50 µM.
